TGI and GI50 data for 18 compounds are collected here from PubChem BioAssay (NCI).

What all share (test): DTP human tumour cell line panel, 48 h
The subject of assay [1] is MDA-MB-435.
Assay [2] has as its system NCI-H522 lung.
The subject of assay [3] is HCC-2998 colon.
For assay [4], the system named is OVCAR-5 ovarian.
Assay [5] deals with A498 renal.
Assay [6] concerns K-562 leukemia.
Assay [7] concerns TK-10 renal.
Assay [8] concerns MOLT-4 leukemia.
The subject of assay [9] is SF-539 CNS.
Assay [10] deals with SF-295 CNS.
The test system of assay [11] is KM12 colon.
In assay [12] the test system is HT29 colon.
Assay [13] has as its system M14 melanoma.
The subject of assay [14] is HOP-92 NSCLC.
The test system of assay [15] is HCT-15 colon.
The test system of assay [16] is IGROV1 ovarian.
The subject of assay [17] is RPMI-8226 leukemia.

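In this assay, cells in 96-well plates receive the compound at five concentrations for 48 hours. Endpoints are linearly interpolated between the surrounding concentrations. Abbreviation: GI50, concentration required for 50% inhibition of growth. The concentration for full growth arrest is given as TGI.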

In the case of `COc1ccccc1Cn1nc(OC)c2cc([N+](=O)[O-])ccc21`, the total growth inhibition concentration (TGI) in [1] is more than 100 µM; in [2], more than 81.3 µM; in assay [3], more than 100 µM; in assay [4], more than 100 µM; in assay [5] it was 60.3 µM; in assay [6], more than 100 µM. Further, the TGI in [7] was 60.8 µM; in assay [8], more than 100 µM; in assay [9] it was more than 53.5 µM; in [10], 20 µM; in assay [11] it was more than 100 µM; in assay [12], more than 100 µM. The TGI in [13] was more than 100 µM; in assay [14] it was 33.8 µM; in [15], more than 100 µM; in assay [16], more than 100 µM.

`CCOC(=O)CCC(NC(=O)c1ccc(OCc2nc3ccccc3n3cccc23)cc1)C(=O)OCC` (configuration not stated): the TGI in assay [1] is more than 100 µM; in [2], 69.3 µM; in assay [3], more than 100 µM; in assay [4], more than 100 µM; in assay [5] it was more than 100 µM; in assay [6], more than 100 µM. Moreover, the TGI in [7], in [8], in assay [9], in assay [10], in assay [11] and in [12] was more than 100 µM in each case. Besides, the TGI in assay [13], in [14], in assay [15] and in assay [16] was more than 100 µM each time.

As to `O=C(/C=C/c1ccco1)CC(=O)/C=C/c1ccco1`, the TGI in assay [1] was found to be 22.1 µM; in assay [2] it was 14.1 µM; in assay [3] it was 17.3 µM; in [4], 23.3 µM; in assay [5], 36.7 µM; in [6] it was 26.7 µM. Also, the total growth inhibition concentration (TGI) in assay [7] is 61.2 µM; in assay [8] it was 23 µM; in assay [9] it was 21.2 µM; in [11], more than 55.2 µM; in assay [13], more than 31.6 µM; in assay [14] it was 71.7 µM. The results for the TGI in assay [15], in assay [16] and in assay [17] were 20.2 µM, more than 31.6 µM and 23.9 µM, respectively.

As to `CCCCCCCCCCCCCCCCCCOCC(CO[P+](=O)O)OCCCCCCCCCCCCCCCCCC` (configuration not stated), the concentration for total growth inhibition (TGI) in assay [1], in [2], in assay [3], in [4], in [5] and in [6] was more than 50 µM in each case. The total growth inhibition concentration (TGI) in assay [7], in [8], in assay [9], in assay [11], in assay [12] and in assay [13] was more than 50 µM each time. The TGI in [14], in assay [15], in assay [16] and in [17] was more than 50 µM in each case.

Take `CC(C)(C)C(=O)C(C(c1ccccc1)N1CCOCC1)N1CCOCC1` (configuration not stated): the concentration for total growth inhibition (TGI) in assay [1], in [2], in [3], in [4], in assay [5] and in assay [6] was more than 100 µM each time. Also, the TGI in assay [7], in assay [8], in assay [10], in assay [11], in [12] and in assay [13] was more than 100 µM in each case. For the same compound, the concentration for total growth inhibition (TGI) in assay [14], in assay [15], in [16] and in [17] was more than 100 µM in each case.

Consider `CC(=O)N[C@H]1CCCC[C@@H]1OC(C)=O`, for which the concentration for total growth inhibition (TGI) in assay [1], in assay [2], in [3], in [4], in [5] and in assay [6] was more than 100 µM throughout. Also, the TGI in assay [7], in assay [8], in assay [10], in [11], in [12] and in assay [14] was more than 100 µM throughout. Besides, the TGI in assay [15], in assay [16] and in [17] was more than 100 µM each time.

Turning to `Cc1n[nH]c(=O)n1/N=C/c1c[nH]c2ccccc12`, the concentration for total growth inhibition (TGI) in assay [1], in [2], in assay [3], in assay [4], in assay [5] and in assay [6] was more than 100 µM each time. The total growth inhibition concentration (TGI) in assay [8], in assay [9], in [10], in [11], in assay [13] and in assay [14] was more than 100 µM throughout. The concentration for total growth inhibition (TGI) in assay [15], in assay [16] and in assay [17] was more than 100 µM throughout.

Turning to `O=[N+]([O-])c1cc(Cl)cc2cc(Cl)cnc12`, the total growth inhibition concentration (TGI) in assay [1], in assay [2], in assay [3], in assay [4], in assay [5] and in assay [6] was more than 100 µM throughout. Also, the total growth inhibition concentration (TGI) in assay [7], in [8], in [9], in assay [10], in assay [12] and in assay [13] was more than 100 µM throughout. The TGI is more than 100 µM in assay [14], more than 100 µM in assay [15], 66.8 µM in assay [16] and more than 100 µM in [17].

Take `CC(=O)Oc1cc2c(cc1OC(C)=O)[C@H]1CC[C@]3(C)[C@@H](OC(C)=O)CC[C@H]3[C@@H]1CC2`: the 50% growth inhibitory concentration (GI50) is 0.316 µM in [1] and 3.53 µM in assay [9]. In addition, the total growth inhibition concentration (TGI) is 9.65 µM in assay [1]; 3.85 µM in assay [2]; 21.1 µM in assay [3]; 24.2 µM in assay [4]; 25.6 µM in assay [5]; 16.8 µM in assay [6]. Besides, the TGI was found to be 20.8 µM in assay [7]; 15.9 µM in assay [9]; 24.3 µM in assay [10]; 23.4 µM in assay [11]; 19.3 µM in [12]; 21.1 µM in assay [13]. Also, the TGI in assay [14] was 5.3 µM; in assay [15], 15.4 µM; in [16], 19.1 µM; in [17], 8.43 µM.

As for `COc1ccc(/C=C/C(=O)N[C@@H]2C(=O)N3[C@@H]2SC(C)(C)[C@@H]3C(=O)O)cc1`, the TGI in assay [1], in assay [2], in assay [3], in assay [4], in assay [5] and in assay [6] was more than 100 µM in each case. The TGI in assay [7], in assay [8], in assay [9], in assay [10], in [11] and in assay [12] was more than 100 µM in each case. The total growth inhibition concentration (TGI) in assay [13], in [14], in assay [15] and in assay [17] was more than 100 µM in each case.

For the compound `OC1CN2CCS[C@H]2C(O)C1O` (some centres not stated), the TGI in [1], in assay [2], in [3], in assay [4], in assay [5] and in assay [6] was more than 100 µM in each case. For the same compound, the TGI in assay [7], in assay [8], in [10], in assay [11], in assay [12] and in [13] was more than 100 µM each time. Also, the TGI in [14], in assay [15], in assay [16] and in assay [17] was more than 100 µM each time.

As to `Cc1c2c(n(Cc3ccccn3)c1C)NN=C(C#N)S2(=O)=O`, the total growth inhibition concentration (TGI) in assay [1], in assay [2], in assay [3], in assay [4], in [5] and in assay [7] was more than 100 µM each time. The TGI in [8], in assay [9], in assay [10], in [11], in [12] and in assay [13] was more than 100 µM in each case. Further, the TGI in assay [14], in assay [15] and in assay [16] was more than 100 µM in each case.

For `COc1cc([C@@H]2c3[nH]c4ccccc4c3C(Nc3ccc([N+](=O)[O-])cc3)[C@H]3COC(=O)N23)cc(OC)c1O` (some centres not stated), the TGI in [1] was 2.45 µM; in assay [2], 1.97 µM; in assay [3], 20.3 µM; in assay [4], 2.06 µM; in assay [5], 0.653 µM; in [6] it was 6.97 µM. In addition, the total growth inhibition concentration (TGI) came to 0.754 µM in assay [7]; 0.289 µM in assay [8]; 0.302 µM in assay [9]; 1.02 µM in assay [10]; 2.71 µM in assay [11]; 2.2 µM in assay [13]. Further, the TGI in [14] stood at 1.96 µM; in assay [15], 29.2 µM; in assay [16], 2.86 µM.

For `CN(C)c1ccc(/C=C(\NC(=O)c2ccccc2)C2NC(Cc3c[nH]c4ccccc34)C(=O)O2)cc1` (configuration not stated), the total growth inhibition concentration (TGI) in [1] is more than 100 µM; in [2] it was 24.4 µM; in assay [3] it was more than 100 µM; in [4] it was more than 100 µM; in assay [5], more than 100 µM; in [6] it was more than 100 µM. The TGI in assay [7] was more than 38.7 µM; in assay [8], more than 100 µM; in assay [10], more than 100 µM; in [11], more than 100 µM; in assay [12] it was more than 100 µM; in assay [13], more than 100 µM. The TGI in assay [14] was more than 69.3 µM; in assay [15], more than 93.5 µM; in assay [16] it was more than 100 µM; in [17], more than 49 µM.

Turning to `O=S(CCCl)c1c2ccccc2nc2ccccc12` (configuration not stated), the total growth inhibition concentration (TGI) in [1] was more than 100 µM; in assay [2] it was 35.6 µM; in assay [3], more than 100 µM; in assay [4] it was more than 100 µM; in [5], more than 100 µM; in assay [6], more than 100 µM. The total growth inhibition concentration (TGI) in [7], in assay [8], in [9], in assay [10], in [11] and in assay [12] was more than 100 µM each time. Further, the concentration for total growth inhibition (TGI) in [13], in assay [14], in assay [15] and in assay [16] was more than 100 µM throughout.

Take `CN(CCCCN(C)CCc1ccc(Cl)c(Cl)c1)CCCCN1CCCC1`: the TGI in assay [1] is 0.904 µM; in [2] it was 2.32 µM; in assay [3] it was 0.384 µM; in [4], 5.54 µM; in assay [5] it was 3.14 µM; in assay [7] it was 2.99 µM. Besides, the concentration for total growth inhibition (TGI) in assay [10] is 3.54 µM; in assay [11] it was 1.92 µM; in assay [12], 1.88 µM; in [13] it was 2.16 µM; in [14], 2.95 µM; in assay [15], 3.73 µM. Also, the TGI in [16] was 5.57 µM.

For the compound `CCOP(=O)(OCC)/C(C#N)=C/c1cccn1CC(C)C`, the total growth inhibition concentration (TGI) in [1], in assay [2], in assay [3], in assay [4], in assay [5] and in assay [6] was more than 100 µM each time. Further, the concentration for total growth inhibition (TGI) in assay [7], in assay [8], in assay [9], in assay [10], in [11] and in assay [12] was more than 100 µM each time. Moreover, the TGI in [13], in assay [14], in [15] and in assay [16] was more than 100 µM throughout.

In the case of `c1ccc2c(c1)Nc1nc3nonc3nc1N2`, the concentration for total growth inhibition (TGI) in assay [1], in assay [2], in [3], in assay [4], in [5] and in assay [6] was more than 100 µM throughout. Moreover, the TGI in assay [7], in assay [8], in assay [10], in assay [11], in assay [12] and in assay [13] was more than 100 µM in each case. In addition, the total growth inhibition concentration (TGI) in assay [14], in assay [15], in [16] and in assay [17] was more than 100 µM in each case.
